Results on three compounds are retold here after patent publication US5200549A, “Antipsoriatic agents” (Hoffman-La Roche Inc., priority 1991, dated 1993).

One experiment concerns human keratinocytes. As to the kind of experiment: Inhibition of proliferation of cultured human keratinocytes (cell count by Coulter Counter). It is filed as cell-based. The following applies: Keratinocyte, 168 h, seven days, triplicate, read-out: Percent Inhibition on Keratinocyte Proliferation; for inhibition at 1 µM: 10^-6 M; for inhibition at 0.1 µM: 10^-7 M; for inhibition at 0.01 µM: 10^-8 M; for inhibition at 0.0001 µM: 10^-10 M. How it is done:
Human neonatal foreskins were collected by circumcision and placed into tubes containing DMEM media. Upon arrival at the laboratory the foreskins were mechanically trimmed of excess dermis and treated with a solution of trypsin/EDTA (0.05%/0.02%) at 4° C. overnight. The epidermis was stripped from the dermis, agitated in buffered saline to remove basal keratinocytes and to separate the stratum corneum which was subsequently removed. The separated cells were centrifuged, resuspended in media, counted and the keratinocytes were plated onto a plain plastic culture dish.
The keratinocytes were plated at a density of about 10^5 cells/cm^2in 35 cm^2 dishes. The cells were grown in keratinocyte growth media (KGM®-modified MCDB 153 containing antibiotics by Clonetics of Boulder, Colo.) according to protocols originally developed by Boyce, S. T. and Ham, R. G., J. of Tissue Culture Meth. 9:83-93 (1985). The cells were grown for 5-10 days and changed every 2-3 days with keratinocyte growth media containing 1.5 mM CaCl2 (hereinafter KGM®/1.5 mM CaCl2) until cells reached a 75% confluency by visual observation. All the cultures were incubated in a humidified atmosphere of 5% CO2 at 37° C.
To establish keratinocyte cell cultures as antiproliferative assays, cells prepared as described in the foregoing were washed with PBS and removed from the culture surface with a solution of trypsin/EDTA (0.25%/0.03%). The removed cells were then centrifuged, resuspended in the KGM®/1.5 mM CaCl2 and counted. The cells were then distributed to 6 well plates at 100,000 cells per well as described in the foregoing. […] After 24-48 hours KGM®/1.5 mM CaCl2 which contained test compounds was added to the cells. The cultures maintained for seven days. The media was changed every 2-3 days.
Solutions of the test compounds were prepared as follows: 1 milligram quantities were received in amber glass vials, and stored at -20° C. Sufficient 100% ethanol was added directly to vials to obtain a millimolar solution that was subsequently aliquoted into small amber vials, overlayed with argon gas and stored at -20° C. Each stock solution was thawed once, used and discarded. Aliquots from the stock solutions were diluted directly into medium and then serially diluted from micromolar to 10^-12 M concentrations. Dilutions from 10^-7 M to 10^-12 M had ethanol added for a final concentration of 0.1%. Stock solutions were used within one month. Control cultures were treated with 0.1% ethanol.
For each experiment every culture well received the same number of cells from the same culture source. At the termination of the experiment the number of cells per was determined by the following procedure. Wells were washed twice with PBS and then incubated for approximately 10-20 minutes at 37° C. with a trypsin/EDTA solution (0.25%/03%). PBS plus 0.1% soybean trypsin inhibitor was added and the cells were suspended. An aliquot of the cells was placed into isotonic buffered saline and counted on an electronic particle counter (e.g. Coulter Counter® device by Coulter Electronics of Hialeah, Fla.).
Quantification of proliferation was done by enumerating the number of keratinocyte cells in each well using the Coulter Counter®. Results shown in Table 1 below show the percent reduction of keratinocyte cell number calculated for each of 4 concentrations of test compounds tested according to the formula: [formula]
For statistical analysis, the mean was calculated for all wells in each treatment group. Standard error was determined by nonbiased analysis using a value for the number of wells in each group, preferably N=3.
Each compound was tested in triplicate. The control (ETOH), as noted above, was 0.1% ethanol.

For experiment [1], the system named is Cholesterol Biosynthesis in HepG2 Cells. As to the kind of experiment: Inhibition of cholesterol biosynthesis in HepG2 cells (3H2O incorporated into cholesterol). It is filed as cell-based. The conditions noted are these: for activity as cholesterol biosynthesis inhibitors: HepG2 cells, in words; for IC50: Homo sapiens. How it is done:
HepG2 cells are maintained in 175 cm^2 T flasks in Darlington Medium supplemented with 10% fetal bovine serum (FBS). Darlington Medium consists of 3 parts Minimal Essential Medium, 1 part Waymouth's MAB87/3 medium and 3×10^-8 M sodium selenite. This medium is supplemented with 100 U/ml penicillin, 100 ug/ml streptomycin and 2.5 ug/ml Fungizone. In order to establish optimal conditions for the whole cell cholesterol biosynthesis assay, preliminary experiments were performed. 0.25, 0.5, 0.75 or 1×10^6 cells were seeded into 6 well cluster plates in 2 ml of fully supplemented Darlington Medium. The serum supplemented medium was aspirated after 72 hours and replaced with serum free Darlington Medium with antibiotics. After 24, 48 or 72 hours serum free, the cells received either 0.5 or 1 mCi ^3 H2 O/ml medium. This medium was aspirated after 24 hours and the cells were washed twice with phosphate buffered saline. The cells were frozen overnight at -20° C. after which they were harvested from the wells with 1 ml of trypsin-EDTA. Extracted lipids were separated on an HPLC system; cholesterol peaks were collected and counted in a scintillation counter. Results are expressed as the dpm ^3 H2 O incorporated into cholesterol.
In the screening assay the cells received compounds at various concentrations concommitantly with ^3 H2 O. When ethanol was the vehicle, the final ethanol concentration was 0.5%, and control wells with that concentration of ethanol were used in each experiment. Results are expressed as the percent dpm ^3 H2 O incorporated into cholesterol in treated vs control wells. IC50 values are calculated using a linear regression analysis.

The term IC50 denotes the midpoint of a concentration-inhibition curve. The low end stands for higher potency, the high end for lower potency. As to `C[C@H]1C=C2C=C[C@H](C)[C@H](CC[C@@H]3C[C@@H](O)CC(=O)O3)[C@H]2[C@@H](OC(=O)C(C)(C)C(C)(F)F)C1` [Compound B, 3,3-difluoro-2,2-dimethylbutanoic acid, [1S-[1α,3α,7β,8β(2R*,4R*)8aβ]]-8-[2-[tetrahydro-4-hydroxy-6-oxo-2H-pyran-2-yl]ethyl]-1,2,3,7,8,8a-hexahydro-3,7-dimethyl-1-naphthalenyl ester], in the experiment on human keratinocytes, the inhibition at 1 µM was determined as 95.8%, the inhibition at 0.1 µM was found to be 31.2%, the inhibition at 0.01 µM is 14.6% and the inhibition at 0.0001 µM amounted to 18%. Also, the “activity as cholesterol biosynthesis inhibitors” value in experiment [1] is reported as “show activity as cholesterol biosynthesis inhibitors”. Besides, the IC50 in experiment [1] (HepG2, Test IV) came out at 5 nM.

`C[C@H]1C=C2C=C[C@H](C)[C@H](CC[C@@H]3C[C@@H](O)CC(=O)O3)[C@H]2[C@@H](OC(=O)C(C)(C)Oc2ccc(Cl)cc2)C1` [A, 2-(4-chlorophenoxy)-2-methylpropionic acid [1S-[1α,3α,7β,8β(2R*, 4R*),8aβ]]-1,2,3,7,8,8a-hexahydro-3,7-dimethyl-8-[2-[tetrahydro-4-hydroxy-6-oxo-2H-pyran-2-yl]ethyl]-1-naphthalenyl ester]: in the experiment with human keratinocytes, the inhibition at 1 µM is 49.7%, the inhibition at 0.1 µM was 15.2%, the inhibition at 0.01 µM worked out at 6.28% and the inhibition at 0.0001 µM was 20.9%. Moreover, the “activity as cholesterol biosynthesis inhibitors” value in experiment [1] is on record as “show activity as cholesterol biosynthesis inhibitors”. Moreover, half-maximal inhibition in experiment [1] (HepG2, Test I) (IC50) required 30 nM. In experiment [1] (HepG2, Test II), this compound registered an IC50 of 500 nM. Further, in experiment [1] (HepG2, Test III), half-maximal inhibition (IC50) was put at 101 nM.

On to `CC[C@H](C)C(=O)O[C@H]1C[C@@H](C)C=C2C=C[C@H](C)[C@H](CC[C@@H]3C[C@@H](O)CC(=O)O3)[C@H]21` [mevinolin, reference compound], for which the 50% inhibitory concentration (IC50) in experiment [1] (HepG2, Test I) came to 20 nM; in experiment [1] (HepG2, Test II), 100 nM; in experiment [1] (HepG2, Test III), 76 nM; in experiment [1] (HepG2, Test IV), 8 nM.
